Assay results from BindingDB's records for patent US20230348426 (Bristol-Myers Squibb, 2023).

Tests used:
[1] = target: T1, N-formyl peptide receptor 2 (Homo sapiens, UniProt P25090); test: FPR2 and FPR1 Cyclic Adenosine Monophosphate (cAMP) Assays
T1 sequence (P25090 whole entry): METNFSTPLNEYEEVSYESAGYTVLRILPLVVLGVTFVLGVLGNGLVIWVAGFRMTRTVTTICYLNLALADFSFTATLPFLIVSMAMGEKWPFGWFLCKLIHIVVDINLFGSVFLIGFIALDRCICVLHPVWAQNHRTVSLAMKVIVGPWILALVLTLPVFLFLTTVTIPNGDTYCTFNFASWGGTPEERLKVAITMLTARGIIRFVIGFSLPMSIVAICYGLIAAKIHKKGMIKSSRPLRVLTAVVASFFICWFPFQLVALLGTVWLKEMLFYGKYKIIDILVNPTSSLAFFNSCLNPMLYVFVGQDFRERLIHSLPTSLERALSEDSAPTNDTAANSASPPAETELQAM
Experimental: (§1) A mixture of forskolin (5 M final for FPR2 or 10 M final for FPR1) and IBMX (200 M final) were added to 384-well Proxiplates (Perkin-Elmer) pre-dotted with test compounds in DMSO (1% final) at final concentrations in the range of 0.020 nM to 100 µM. Chinese Hamster Ovary cells (CHO) overexpressing human FPR1 or human FPR2 receptors were cultured in F-12 (Ham s) medium supplemented with 10% qualified FBS, 250 µg/ml zeocin and 300 µg/ml hygromycin (Life Technologies). Reactions were initiated by adding 2,000 human FPR2 cells per well or 4,000 human FPR1 cells per well in Dulbecco s PBS (with calcium and magnesium) (Life Technologies) supplemented with 0.1% BSA (Perkin-Elmer). The reaction mixtures were incubated for 30 min at room temperature. The level of intracellular cAMP was determined using the HTRF HiRange cAMP assay reagent kit (Cisbio) according to manufacturer s instruction. Solutions of cryptate conjugated anti-cAMP and d2 flurorophore-labelled cAMP were made in a supplied lysis buffer separately. Upon completion of the reaction, the cells were lysed with equal volume of the d2-cAMP solution and anti-cAMP solution. […] The potency and activity of a compound to inhibit cAMP production was then determined by fitting to a 4-parametric logistic equation from a plot of cAMP level versus compound concentrations.

fMet-Leu-Phe receptor = target: T2, fMet-Leu-Phe receptor (Homo sapiens, UniProt P21462); test: as above
T2 sequence (P21462 whole entry): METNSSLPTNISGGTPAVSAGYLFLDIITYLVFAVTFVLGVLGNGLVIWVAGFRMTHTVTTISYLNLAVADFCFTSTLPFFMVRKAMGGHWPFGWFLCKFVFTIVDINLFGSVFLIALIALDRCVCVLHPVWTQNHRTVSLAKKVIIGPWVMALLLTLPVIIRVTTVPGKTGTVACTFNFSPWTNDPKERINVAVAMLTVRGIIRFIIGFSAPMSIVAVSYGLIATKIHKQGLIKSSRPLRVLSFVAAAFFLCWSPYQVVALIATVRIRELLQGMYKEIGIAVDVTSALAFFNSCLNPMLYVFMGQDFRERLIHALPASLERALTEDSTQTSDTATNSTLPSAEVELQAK
Experimental: as §1

EC50 [1] | EC50 (fMet-Leu-Phe receptor) | Compound
7 nM | 5 nM | COc1cc(F)c([C@@H]2CN(c3c(C)ccn(CC(O)C4CC4)c3=O)C(=O)[C@H]2NC(=O)c2ccc(Cl)cc2)c(F)c1 (some centres not stated) [US20230348426, Example 684]
1.9 nM | 12 nM | COc1cc(F)c([C@@H]2CN(c3c(C)ccn(C4CCS(=O)(=O)CC4)c3=O)C(=O)[C@H]2NC(=O)c2ccc(Cl)cc2)c(F)c1 [US20230348426, Example 625]

The remaining lines, values behind:

Compound | EC50 [1] | EC50 (fMet-Leu-Phe receptor)
COc1cc(F)c([C@@H]2CN(c3nc(N4CCCS4(=O)=O)ccc3F)C(=O)[C@H]2NC(=O)c2ccc(OC(F)(F)F)cc2)c(F)c1 [US20230348426, Example 289] | 8.6 nM | 62 nM
COc1cc(C2CCN(C)CC2)nc(N2C(=O)[C@@H](NC(=O)c3ccc(Cl)cc3)[C@H](c3c(F)cc(OC)cc3F)[C@H]2C)c1 [US20230348426, Example 558] | 6.4 nM | 2000 nM
COc1cc(F)c([C@@H]2CN(c3c(C)ccn(C4CCN(C)C4)c3=O)C(=O)[C@H]2NC(=O)c2ccc(Cl)cc2)c(F)c1 (some centres not stated) [US20230348426, Example 510] | 3.5 nM | 290 nM
COc1cc(F)c([C@@H]2CN(c3nc(N4CC(CO)OCC4=O)ccc3F)C(=O)[C@H]2NC(=O)c2ccc(OC(F)F)cc2)c(F)c1 (some centres not stated) [US20230348426, Example 331] | 13 nM | 5600 nM
